Data on ten compounds can be found in PMC8066339, “Optimization of 2-Acylaminocycloalkylthiophene Derivatives for Activity against Staphylococcus aureus RnpA” (Antibiotics, 2021).

pIC50: −log10 of the molar value. Entries after “also recorded” stand apart in the source; their conditions may differ.

One data set deals with T1, S. aureus RnpA (Staphylococcus aureus, UniProt P0A0H5).
T1 construct: made in house; host or cells: E. coli BL21 (DE3)
T1 sequence (P0A0H5 1-117): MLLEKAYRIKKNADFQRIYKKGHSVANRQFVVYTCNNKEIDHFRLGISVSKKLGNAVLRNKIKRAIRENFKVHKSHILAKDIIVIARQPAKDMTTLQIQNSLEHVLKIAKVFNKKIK
Kind of data set: In vitro RnpA mRNA degradation assay (RNase Alert FRET substrate). The class given is biochemical. Particulars: for RNA degradation inhibition in time course study: 50 µM compound, 30 min at 37 °C, Figure 2A; for pIC50: in vitro RnpA-mediated RNA degradation, read-out: mRNA IC50. The method, then:
(§1) His-tagged RnpA was purified as previously described. E. coli BL21 (DE3) cells harboring plasmid pEXP5-nt containing a hexahistidine tag fused to the N-terminus of S.aureus RnpA coding region were grown in LB supplemented with 50 µg mL^−1 ampicillin to OD600 = 0.6 and induced with 1mM isopropyl β-D-1-thiogalactopyranoside (IPTG) for three hours to induce protein expression. […] Cells were mechanically lysed by three passes at 18,000 psi through a French Pressure Cell Press (SLM-Aminco; Pittsford, NY, USA) and cell debris was removed by centrifugation at 17,000× g for 10 min at 4 °C. Supernatants were collected, filtered through a 0.2 micron syringe filter, then loaded onto a 5 mL HisPur cobalt column (ThermoFisher Scientific, Waltham, MA, U.S.A.) using the BioRad Maximizer Duo-Flow Medium Pressure Chromatography System. Protein was eluted using an imidazole gradient (80 mM to 500 mM). Fractions were assessed for RnpA presence and purity via SDS-PAGE analysis, Coomassie staining and Western blotting using an anti-His antibody (Invitrogen; Grand Island, NY, USA).
RnpA-mediated degradation was assessed using the Rnase Alert QC System (Thermofisher Scientific). 20 pmol of His-RnpA was combined with 0.4 μM (final concentration) FRET substrate and either DMSO (negative control) or compound ≤500 µM in 1× Rnase Alert Buffer. Reactions were assembled in 96-well PCR plates (BioRad) and incubated at 37 °C for 30 min in the BioRad CFX 96 Connect Real Time instrument, measuring fluorescence every 2 min at 490 nm excitation/520 nm emission. Percent inhibition of each compound was calculated at the 30 min time-point based on the following formula: (RFU of compound treated RnpA/RFU of DMSO-treated RnpA) × 100.

For another data set, the target named is T2, RNase P (RnpA + rnpB) (Staphylococcus aureus, UniProt P0A0H5).
T2 construct: made in house; host or cells: E. coli BL21 (DE3)
T2 sequence (P0A0H5 1-117): T1 sequence (P0A0H5 1-117)
The data set is described as follows: In vitro ptRNA^Tyr processing assay with reconstituted RNase P. The class given is biochemical. Particulars: for pIC50: in vitro ptRNA^Tyr processing, average of at least two tests, read-out: ptRNA IC50. On the procedure: as §1
rnpB and RNA substrates (spa, ptRNA^Tyr) for RnpA functional assays, as well as mature tRNA were synthesized in vitro, as previously described. Each gene was PCR amplified using S. aureus UAMS-1 chromosomal DNA as a template and the corresponding oligonucleotide primer pairs, in which the forward primers contained an RNA polymerase T7 promoter sequence. The following primer pairs were used in this study (T7 promoter underlined): T7-rnpB forward—[…] and rnpB reverse—[…]; T7-ptRNA^Tyr forward—[…] and ptRNA^Tyr reverse—TGGTGGAG GGGGGCAGATTC; T7-spa forward—[…] CGACGTCCAG and spa reverse—[…]. Resulting PCR products were analyzed on a 0.8% agarose gel and purified using the Qiagen QIAquick Gel Extraction kit, according to the manufacturer’s instructions. In vitro transcription was performed using the TranscriptAid T7 High Yield Transcription kit (Fermentas; Burlington, ON, Canada) following manufacturer’s instructions. Following in vitro transcription, the RNA was treated with DNase I for 90 min and re-purified using the Qiagen RNeasy Mini kit. RNA was quantified using a NanoDrop2000 spectrophotometer.
S.aureus Rnase P activity assays were performed as previously described. Briefly, ptRNA^Tyr and rnpB RNA was denatured by heating to 95 °C for 5 min then slow cooled to room temperature. RNA species were then combined with 2× low salt buffer (50 mM Tris-HCl pH 8.0, 5 mM MgCl2) and incubated for 5 min at 37 °C. Rnase P was reconstituted by mixing an equal molar ratio of His-RnpA and rnpB for 15 min at 37 °C. […] Then, 5 pmol ptRNA^Tyr was added to each reaction and incubated for an additional 30 min at 37 °C. Reactions were stopped with 2× RNA loading dye (Thermo Scientific) and heating to 65 °C for 10 min. Samples were electrophoresed on a 7M urea/8% polyacrylamide gel then stained with 0.5 µg mL^−1 ethidium bromide. The BioRad EZ Gel Doc imaging system was used to visualize the RNA and relative abundance of mature tRNA^Tyr in the DMSO control or in the samples containing compound and analyzed using BioRad Image Lab densitometry software. The percent inhibitory activity of each compound was calculated using the following equation: (% experimental processing/% processing negative control) × 100.

Data set [1] deals with Human liver epithelial cells (HEP G2). Kind of data set: MTT cytotoxicity testing. Particulars: for HEP G2 toxicity against 70% viability cut-off (in words): concentrations lower than 50 µM. On the procedure: For the scaffold to have translational significance, it must be non-toxic to human cells. Accordingly, an initial assessment of toxicity was performed using human liver epithelial (HEP G2) cells via a 3-(4,5-dimethylthiazol-2-yl)-2,5-diphenyltetrazolium bromide (MTT) assay in the presence of up to 400 µM of each analog. […] Viability of 70% was used as the cut-off criteria for toxicity (Figure 4, dashed line), according to ISO guidelines, as described in Materials and Methods.
Human liver epithelial cells (HEP G2) were cultured in Dulbecco’s Modified Eagle Medium (DMEM; Fisher Scientific, Hampton, NH) supplemented with 10% heat inactivated fetal bovine serum (FBS; Corning Life Sciences) and 1% penicillin/streptomycin (Thermofisher Scientific). Cells were incubated at 37 °C with 5% CO2 in Nunc (Roskilde, Denmark) tissue culture flasks. Cells were grown in monolayers until exceeding 70% confluency, removed with 0.25% trypsin (Fisher Scientific), resuspended in fresh medium, and used to seed approximately 2.5 × 10^5 cells/mL into each well of a 96 well tissue culture microplate (Nunc) containing 200 µL of fresh medium. Cytotoxicity testing was conducted according to the guidelines of the International Organization for Standardization (ISO) 10993-5:2009. After 24 h of incubation, the cell media was removed, and adherent cells were washed with 1× phosphate buffered saline (PBS). Cell media was supplemented with 5% per volume of compound at final concentrations from 12.5 µM to 400 µM and incubated 20–24 h at 37 °C with 5% CO2. After incubation, medium supplemented with compound was removed from the wells and replaced with 100 µL of fresh culture medium. Then, 10 µL of 12 mM (3-(4,5-dimethylthiazol-2-yl)-2,5-diphenyltetrazolium bromide (MTT) stock reagent (CyQUANT MTT cell proliferation kit; Thermofisher Scientific) was added to each well. After labeling the cells with the MTT reagent, all but 25 µL of medium was removed from the wells, and 50 µL of DMSO was added to each well and mixed thoroughly and cells were incubated at 37 °C with 5% CO2 for 10 min. After incubation, wells were mixed again and using a SPECTRAmax5 microplate reader, absorbance was read at 540 nm. Cells were treated with 125 µg/mL mitomycin C (Fisher Scientific) to serve as a positive control and 2% DMSO as a negative control. […] All compounds were tested in two independent experiments in triplicate and cell viability was expressed as a percent of the negative control.

Regarding `O=C(Nc1cccc(Cl)c1)c1c(NC(=O)C(F)(F)F)sc2c1CCCCC2` [RNP0007], at S. aureus RnpA, the “Inhibition of in vitro RnpA-mediated RNA degradation (in words)” value was “least effective; also recorded: weakly inhibited”, the “RNA degradation inhibition in time course study” value (“RNA degradation inhibition” for short) is “varying degrees of RNA degradation inhibition” and the pIC50 was 3.76. Further, at RNase P (RnpA + rnpB), the “Inhibition of in vitro RnpA ptRNA processing (in words)” value is recorded as “weakly inhibited” and the negative logarithm of the IC50 (pIC50) is 4.01.

Take `O=C(Nc1cccc(F)c1)c1c(NC(=O)C(F)(F)F)sc2c1CCCCC2` [RNP0008]: on S. aureus RnpA, the “Inhibition of in vitro RnpA-mediated RNA degradation (in words)” value is reported as “least effective”, the “RNA degradation inhibition” value is “varying degrees of RNA degradation inhibition” and the negative-log IC50 (pIC50) is 3.61. At RNase P (RnpA + rnpB), the “Inhibition of in vitro RnpA ptRNA processing (in words)” value was “only inhibited the ptRNA processing function” and the negative logarithm of the IC50 (pIC50) is 4.11. Further, the “HEP G2 toxicity against 70% viability cut-off (in words)” value in data set [1] is “did not exhibit toxicity that was beyond the 70% cut-off criteria”.

On to `O=C(Nc1ccc(F)cc1)c1c(NC(=O)C(F)(F)F)sc2c1CCCCC2` [RNP0009], for which, at S. aureus RnpA, the “Inhibition of in vitro RnpA-mediated RNA degradation (in words)” value is “least effective” and the negative logarithm of the IC50 (pIC50) was less than 3.60. Also, at RNase P (RnpA + rnpB), the “Inhibition of in vitro RnpA ptRNA processing (in words)” value was “only inhibited the ptRNA processing function” and the negative logarithm of the IC50 (pIC50) was 4.10. Moreover, the “HEP G2 toxicity against 70% viability cut-off (in words)” value in data set [1] is recorded as “did not exhibit toxicity that was beyond the 70% cut-off criteria”.

`Cc1cccc(NC(=O)c2c(NC(=O)C(F)(F)F)sc3c2CCCCC3)c1` [RNP0010]: on S. aureus RnpA, the “Inhibition of in vitro RnpA-mediated RNA degradation (in words)” value is “least effective” and the pIC50 was 3.65. On RNase P (RnpA + rnpB), the “Inhibition of in vitro RnpA ptRNA processing (in words)” value is given as “only inhibited the ptRNA processing function” and the negative-log IC50 (pIC50) is 4.15. The “HEP G2 toxicity against 70% viability cut-off (in words)” value in data set [1] is given as “did not exhibit toxicity that was beyond the 70% cut-off criteria”.

On to `O=C(Nc1cccc(C(F)(F)F)c1)c1c(NC(=O)C(F)(F)F)sc2c1CCCCC2` [RNP0011], for which, at S. aureus RnpA, the “Inhibition of in vitro RnpA-mediated RNA degradation (in words)” value is listed as “good inhibitory properties” and the pIC50 was 4.23. In addition, on RNase P (RnpA + rnpB), the “Inhibition of in vitro RnpA ptRNA processing (in words)” value is listed as “good inhibitory properties” and the pIC50 was 4.24.

As for `O=C(Nc1ccc(C(F)(F)F)cc1)c1c(NC(=O)C(F)(F)F)sc2c1CCCCC2` [RNP0012], at S. aureus RnpA, the “Inhibition of in vitro RnpA-mediated RNA degradation (in words)” value is “good inhibitory properties”, the “RNA degradation inhibition” value is “varying degrees of RNA degradation inhibition” and the negative logarithm of the IC50 (pIC50) is 4.17. At RNase P (RnpA + rnpB), the “Inhibition of in vitro RnpA ptRNA processing (in words)” value is given as “good inhibitory properties” and the negative logarithm of the IC50 (pIC50) is 4.18. For the same compound, the “Conversion of precursor tRNA to mature tRNA” value on RNase P (RnpA + rnpB) (0, 50, 250 or 500 µM, urea-PAGE, Figure 2B) was “reduced conversion of precursor tRNA to mature tRNA in a dose dependent manner”. In data set [1] (human), the Therapeutic index is ~ 260. Moreover, the “Fold of the 50 µM cytotoxicity dose above the MIC against S. aureus” value in data set [1] (human, 50 µM) is 263 fold.

For `O=C(Nc1cccc(F)c1)c1c(NC(=O)C(F)(F)F)sc2c1CCCC2` [RNP0013], the “Inhibition of in vitro RnpA-mediated RNA degradation (in words)” value on S. aureus RnpA is “good inhibitory properties”. The pIC50 at S. aureus RnpA is 4.30; at RNase P (RnpA + rnpB) it was 4.02.

Regarding `O=C(Nc1ccc(F)cc1)c1c(NC(=O)C(F)(F)F)sc2c1CCCC2` [RNP0014], on S. aureus RnpA, the “Inhibition of in vitro RnpA-mediated RNA degradation (in words)” value was “strongest inhibitor”, the “RNA degradation inhibition” value was “varying degrees of RNA degradation inhibition” and the pIC50 was 5.19. For the same compound, on RNase P (RnpA + rnpB), the “Inhibition of in vitro RnpA ptRNA processing (in words)” value was “weak effects; also recorded: weak or no inhibitory activity” and the negative logarithm of the IC50 (pIC50) was 3.86.

Consider `O=C(Nc1ccc(C(F)(F)F)cc1)c1c(NC(=O)C(F)(F)F)sc2c1CCCC2` [RNP0015], for which, on S. aureus RnpA, the “Inhibition of in vitro RnpA-mediated RNA degradation (in words)” value is reported as “good inhibitory properties” and the negative-log IC50 (pIC50) was 4.37. On RNase P (RnpA + rnpB), the “Inhibition of in vitro RnpA ptRNA processing (in words)” value was “greatest inhibitory activity; also recorded: good inhibitory properties” and the pIC50 was 4.34.

Turning to `O=C(Nc1cccc(C(F)(F)F)c1)c1c(NC(=O)C(F)(F)F)sc2c1CCCC2` [RNP0016], on S. aureus RnpA, the “Inhibition of in vitro RnpA-mediated RNA degradation (in words)” value is reported as “good inhibitory properties” and the pIC50 is 4.35. Further, at RNase P (RnpA + rnpB), the “Inhibition of in vitro RnpA ptRNA processing (in words)” value was “good inhibitory properties” and the pIC50 was 4.28.
